From patent US20020040062A1, “Protein kinase C activators and their use in decreasing expression of cell antigens” (The Trustees of Columbia University, priority 1993, published 2002) come the findings set out here.

The test system of test [1] is HLA-DR. As to the kind of experiment: FACS analysis of HLA-DR (MoAb L243) in WiDr human colon carcinoma cells. The test is classed as cell-based. The method, then:
(§1) Cells were plated in 10 cm plates, media was changed 24 hours later with no addition (control) or addition of the indicated compounds and cells were incubated at 37° C. for the indicated time (72 or 96 hours). Cells were resuspended using 10× EDTA and antigen expression was determined as described (Leon, Mesa-Tejada, Gutierrez, Estabrook, Greiner, Schlom & Fisher: Anticancer Res. 9:1639-1648, 1989; Leon, Gutierrez, Jiang, Estabrook, Waxman & Fisher: Cancer Immunol. Immmunother. 35:315-324, 1992).
(In general: A flow cytometer gives signals particle by particle.)

For test [2], the system named is T47D cells. The test can be described thus: 3H-thymidine incorporation (DNA synthesis) in T47D cells. The test is classed as cell-based, human. Particulars: 0.1 μg/ml, 72 hr, FIG. 1. The method, then: FIG. 1: Effect of H-7, TPA, MEZ and ADMB on T47D cell growth and DNA synthesis. Cell growth assays are presented in (A). T47D cells were seeded at 1×10^4 cells/35 mm tissue culture plate, the medium was changed with the indicated compounds 24 hr later and cell numbers were determined after an additional 72 hr growth at 37° C. by Coulter Counter. Results are the average of triplicate samples/experimental condition which varied by ≦10%. DNA synthesis assays are presented in (B). T47 D cells were seeded at 1.25×10^4 cells in 0.2 ml of media in 96 microtiter plates. Every 24 hr, cultures received 1 μCi of methyl-^3H-thymidine and 8 hr later cells were harvested and TCA precipitable counts were determined. Results are the average from replicate samples exposed to the indicated compounds for 72 hr. Replicate samples varied by ≦10% and replicate studies varied by ≦15%. Further details can be found in “Detailed Description Of The Invention”.
T47D cells were seeded at 5×10^3 cells/ml in 35 mm tissue culture plates and 24 hr later the medium was changed with the indicated compounds. Seventy-two hr later the cells were resuspended in trysin/versene (0.125%/0.02%, w/w) and counted using a ZM Coulter Counter (Coulter Electronics). For ^3H-thymidine incorporation studies, T47D cells were seeded at 1.25×10^4 cells in 0.2 ml of media in 96 well microtiter plates. Every 24 hr, plates received 1 μCi of methyl-^3H-thymidine (specific activity […]) (ICN Radiochemicals, Irvine, Calif.), cells were harvested 8 hr after the addition of labeled thymidine and TCA precipitable counts were determined using a Packard scintillation counter. Replicate samples varied by ≦10% and replicate studies varied by ≦15%.

The subject of test [3] is CA19.9. As to the kind of experiment: FACS analysis of CA19.9 (MoAb B67.4) in WiDr human colon carcinoma cells. The test is classed as cell-based. The method, then: as §1
For test [4], the system named is MoAb K56. The test can be described thus: FACS analysis of MoAb K56 binding in CBS human colon carcinoma cells. It counts as cell-based. Particulars: 96 hours. The method, then:
Cells were plated in 10 cm plates, media was changed 24 hours later with no addition (control) or addition of the indicated compounds and cells were incubated at 37° C. for 96 hours. Cells were resuspended using 10× EDTA and antigen expression was determined as described (Leon, Mesa-Tejada, Gutierrez, Estabrook, Breiner, Schlom & Fisher: Anticancer Res. 9:1639-1648, 1989; Leon, Gutierrez, Jiang, Estabrook, Waxman & Fisher: Cancer Immuno. Immunother. 35:315-324 1992).

Test [5] has as its system c-erbB-2. As to the kind of experiment: FACS analysis of c-erbB-2 surface expression in T47D cells. Particulars: 72 hr; for c-erbB-2 level of upregulation versus untreated control cells (equivalent to 1.0) / Antigenic Expression (MFI) c-erbB-2: 0.1 μg/ml TPA or MEZ; for c-erbB-2 level of upregulation versus untreated control cells (equivalent to 1.0): presence or absence of 0.1 μg/ml H-7; for Antigenic Expression (MFI) c-erbB-2: presence or absence of 0.1 μg/ml H-7, FACStar. It counts as cell-based, human. An excerpt:
IgG1 murine monoclonal antibody Cu18 and Cu46 recognize two different epitopes of a highly restricted breast carcinoma associated glycoprotein of Mr 225,000 to 250,000 (BCA 225). This TAA is expressed intracytoplasmically and on the membrane of 94% of breast tumors tested and in the T47D human breast carcinoma cell line. BCA 225 is shed into the culture medium by T47D cells and into the sera of breast cancer patients. IgG2a monoclonal antibody L243 (anti HLA Class II-DR) recognizes a monomorphic HLA Class II-DR-α epitope (ATCC M355). Monoclonal antibody CL203.4 [40], which recognizes ICAM-I, was kindly provided by Dr. S. Ferrone, New York Medical College, NY. The c-erbB-2 monoclonal antibody which recognizes the extracellular domain of c-erbB-2 was obtained from Triton Biosciences, Inc., Alamedia, Calif. Monoclonal antibodies Cu18 and Cu46 were used at 0.05 μg/ml and monoclonal antibodies interacting with HLA Class II-DR, ICAM-1 and c-erbB-2 were used at 10 μg/ml. For each experiment, isotype matched control backgrounds (IgG for Cu18, Cu46 and ICAM-1, IgG2a for HLA Class Ii and IgG2b for c-erbB-2) were subtracted from the experimental results. Background from antimouse IgG FITC antibody was also subtracted from experimental results. Applicants never observed backgrounds higher than 2% of total cells for isotypic mouse IgG or higher than 5% for antimouse IgG FITC.
T47D cells treated with the various compounds were analyzed by flow cytometry using appropriate monoclonal antibody concentrations as described previously. Briefly, 1×10^5 cells were incubated with the test antibody for 30 min at 4° C., washed 3× with PBS and incubated with a goat a mouse F (ab)2 FITC conjugated test antibody at a 1:40 dilution for 30 min at 4° C. Cells were then washed 3× with PBS and analyzed on a FACStar (Beckon Dickinson, Mountain View, Calif.) or a Coulter Epics IV FACS (Coulter, Hialeah, Fla.). Results are expressed as mean fluorescence intensity (MFI) units which were determined as described previously. MFI=(mean channel fluorescence in fluorescence positive antibody-binding cells×% of fluorescence positive antibody-binding cells)−(mean channel fluorescence in unstained cells×% of fluorescence positive cells in the unstained population). All studies were performed a minimum of three or four times with duplicate samples in each experiment. Replicate samples within individual experiments varied by ≦10% and variation between experiments were generally ≦20%.

The mark [6] stands for this setting: 72 Hour Treatment, ADMB 0.01 μg/ml.
[7] abbreviates: 72 Hour Treatment, ADMB 0.1 μg/ml.
Where [8] appears, read: 72 Hour Treatment, ADMB 1.0 μg/ml.
Where [9] appears, read: 96 Hour Treatment, ADMB 0.01 μg/ml.
Where [10] appears, read: 96 Hour Treatment, ADMB 0.1 μg/ml.
The mark [11] stands for this setting: 96 Hour Treatment, ADMB 1.0 μg/ml.
[12] abbreviates: 72 Hour Treatment, MEZ 100 ng/ml, IFN-γ 100 U/ml.
Setting [13] is: 96 Hour Treatment, MEZ 100 ng/ml, IFN-γ 100 U/ml.

Marks after values point to notes of the source that are not given here.

As to `CCCCCCCCCCN(C)c1cc(CO)cc(NC(C)=O)c1` [ADMB, 3-(N-acetylamino)-5-(N-decyl-N-methylamino)-benzyl alcohol], the “Monoclonal Antibody Binding (MFI) MoAb L243 (HLA-DR)” value in test [1] (setting [6]) was 390 MFI; in test [1] (setting [7]), 317 MFI; in test [1] (setting [8]), 486* MFI; in test [1] (setting [9]), 434 MFI; in test [1] (setting [10]), 615* MFI; in test [1] (setting [11]) it was 806* MFI. In test [2], the “effect on DNA synthesis (3H-thymidine incorporation)” value (from here on “effect on DNA synthesis”) is on record as “only marginally altered”. Moreover, the “Monoclonal Antibody Binding (MFI) MoAb B67.4 (CA19.9)” value is given as 1136 MFI in test [3] (setting [6]); 1172 MFI in test [3] (setting [7]); 1400* MFI in test [3] (setting [8]); 1512 MFI in test [3] (setting [9]); 2028* MFI in test [3] (setting [10]); 2417* MFI in test [3] (setting [11]). Also, the “Monoclonal Antibody Binding (MFI) MoAb K56” value in test [4] (ADMB 0.01 μg/ml) amounted to 2126 MFI; in test [4] (ADMB 0.1 μg/ml), 1715 MFI; in test [4] (ADMB 1.0 g/ml), 2420 MFI.

Consider `CC1CNCCN1S(=O)(=O)c1cccc2cnccc12.Cl.Cl` (stereo not drawn) [H-7, 1-(5-isoquinolinesulfonyl)-2-methylpiperazine dihydrochloride], for which, in test [5], the “c-erbB-2 level of upregulation versus untreated control cells (equivalent to 1.0)” value is “(1.0)” and the “Antigenic Expression (MFI) c-erbB-2” value is 7,045 MFI.

`C=C(C)[C@@]12O[C@@]3(c4ccccc4)O[C@@H]1[C@@H]1[C@@H]4O[C@]4(CO)[C@@H](O)[C@]4(O)C(=O)C(C)=C[C@H]4[C@@]1(O3)[C@H](C)[C@H]2OC(=O)/C=C/C=C/c1ccccc1` [MEZ, mezerein]: the “Monoclonal Antibody Binding (MFI) MoAb L243 (HLA-DR)” value in test [1] (setting [12]) was 1120* MFI; in test [1] (setting [13]), 2129* MFI. Further, the “effect on DNA synthesis” value in test [2] was “only marginally altered”. Besides, the “Monoclonal Antibody Binding (MFI) MoAb B67.4 (CA19.9)” value in test [3] (setting [12]) is on record as 1914* MFI; in test [3] (setting [13]), 4784* MFI. Further, the “Monoclonal Antibody Binding (MFI) MoAb K56” value in test [4] (MEZ 1100 ng/ml, IFN-γ 100 U/ml) is on record as 3002* MFI. The “c-erbB-2 level of upregulation versus untreated control cells (equivalent to 1.0)” value in test [5] is “(2.6)”. Moreover, the “Antigenic Expression (MFI) c-erbB-2” value in test [5] is on record as 18,385 MFI. The “efficacy of upregulation of c-erbB-2 (fold-change in MFI, FIG. 2)” value in test [5] (0.1 μg/ml of ADMB, TPA or MEZ) is on record as “most effective PKC activator tested”.

Regarding `CCCCCCCCCCCCCC(=O)O[C@@H]1[C@@H](C)[C@@]2(O)[C@@H](C=C(CO)C[C@]3(O)C(=O)C(C)=C[C@@H]23)[C@H]2C(C)(C)[C@]12OC(C)=O` [TPA, 12-0-tetradecanoyl-phorbol-13-acetate], the “effect on DNA synthesis” value in test [2] is “suppressed to the greatest degree”. Also, in test [5], the “c-erbB-2 level of upregulation versus untreated control cells (equivalent to 1.0)” value was “(2.3)” and the “Antigenic Expression (MFI) c-erbB-2” value is given as 16,100 MFI.

B1: IFN-γ: recombinant human immune interferon produced in Escherichia coli (protein, UniProt P01579 24-161, looked up)
Interferon gamma: QDPYVKEAENLKKYFNAGHSDVADNGTLFLGILKNWKEESDRKIMQSQIVSFYFKLFKNFKDDQSIQKSVETIKEDMNVKFFNSNKKKRDDFEKLTNYSVTDLNVQRKAIHELIQVMAELSPAAKTGKRKRSQMLFRG
As to B1, the “activity in increasing Class II HLA-DR antigens relative to ADMB” value in test [1] is on record as “approximately 3 ×”. In addition, the “Monoclonal Antibody Binding (MFI) MoAb L243 (HLA-DR)” value in test [1] (setting [12]) was 1724* MFI; in test [1] (setting [13]), 2376* MFI. The “Monoclonal Antibody Binding (MFI) MoAb B67.4 (CA19.9)” value in test [3] (setting [12]) is on record as 2271* MFI; in test [3] (setting [13]) it was 3191* MFI. Moreover, the “Monoclonal Antibody Binding (MFI) MoAb K56” value in test [4] (MEZ 1100 ng/ml, IFN-γ 100 U/ml) is 3126* MFI.
